pIC50: −log10 of the molar value.
Tests used:
[1] = molecular target: Protease (Human immunodeficiency virus 1, UniProt Q9YQ12); assay: Inhibition of HIV1 recombinant protease
[2] = molecular target: Protease (Human immunodeficiency virus 1) (UniProt Q9YQ12); assay: Inhibition of HIV1 recombinant protease at 10 uM
[3] = test system: Human immunodeficiency virus 1; assay: Antiviral activity against HIV1; assay type: functional, organism-based

Sequence of Protease (Q9YQ12 whole entry): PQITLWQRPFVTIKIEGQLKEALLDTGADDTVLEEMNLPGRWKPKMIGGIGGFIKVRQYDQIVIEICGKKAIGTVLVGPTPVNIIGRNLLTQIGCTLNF
Sequence of Protease (Human immunodeficiency virus 1) (Q9YQ12 as listed by the source): as the sequence (Q9YQ12 whole entry) above

| SMILES | pIC50 [1] | inhibition [2] [%] | pIC50 [3] |
| --- | --- | --- | --- |
| N=[S+]([O-])([C@H](Cc1ccccc1)C(=O)N[C@H]1c2ccccc2C[C@H]1O)[C@@H](Cc1ccccc1)C(=O)N[C@H]1c2ccccc2C[C@H]1O | 7.43 | – | – |
| N=[S+]([O-])(C(Cc1ccccc1)C(=O)N[C@H]1c2ccccc2C[C@H]1O)C(Cc1ccccc1)C(=O)N[C@H]1c2ccccc2C[C@H]1O (stereo partly specified) | – | 87 | – |
| N=[S+]([O-])([C@H](Cc1ccccc1)C(=O)N[C@H]1c2ccccc2C[C@H]1O)[C@H](Cc1ccccc1)C(=O)N[C@H]1c2ccccc2C[C@H]1O | 6.81 | – | – |
| N=[S+]([O-])(C[C@H](Cc1ccccc1)C(=O)N[C@@H]1c2ccccc2C[C@@H]1O)C[C@H](Cc1ccccc1)C(=O)N[C@@H]1c2ccccc2C[C@@H]1O | 8.60 | – | 6.39 |
| O=C(N[C@H]1c2ccccc2C[C@H]1O)C(CSCC(Cc1ccccc1)C(=O)N[C@H]1c2ccccc2C[C@H]1O)Cc1ccccc1 (stereo partly specified) | – | 15 | – |
| O=C(N[C@H]1c2ccccc2C[C@H]1O)C(Cc1ccccc1)S(=O)(=O)C(Cc1ccccc1)C(=O)N[C@H]1c2ccccc2C[C@H]1O (stereo partly specified) | – | 30 | – |

Continued, values first:

| pIC50 [1] | inhibition [2] [%] | pIC50 [3] | SMILES |
| --- | --- | --- | --- |
| < 5.00 | – | – | O=C(N[C@H]1c2ccccc2C[C@H]1O)[C@@H](Cc1ccccc1)C[S+]([O-])C[C@H](Cc1ccccc1)C(=O)N[C@H]1c2ccccc2C[C@H]1O |
| 7.27 | – | – | O=C(N[C@H]1c2ccccc2C[C@H]1O)[C@H](Cc1ccccc1)C[S+]([O-])C[C@H](Cc1ccccc1)C(=O)N[C@H]1c2ccccc2C[C@H]1O |
| 7.68 | – | – | O=C(N[C@@H]1c2ccccc2C[C@@H]1O)[C@@H](Cc1ccccc1)C[S+]([O-])C[C@H](Cc1ccccc1)C(=O)N[C@@H]1c2ccccc2C[C@@H]1O (single isomer, unassigned) |
| – | 75 | – | O=C(N[C@H]1c2ccccc2C[C@H]1O)C(Cc1ccccc1)C[S+]([O-])CC(Cc1ccccc1)C(=O)N[C@H]1c2ccccc2C[C@H]1O (stereo partly specified) |
